Source: publication PMC12906832, “Transgenic Tobacco Plants Expressing Synthetic Peptides: A Functional and Structural Analysis for Pathogen Resistance” (Plant Biotechnology Journal, 2025)
No end group written: not given here.

Legend:
[1] = tested on: HEK293 cells; assay: MTT cell viability assay; type: cell-based, human; settings: 24 h, concentrations up to 4× MIC99%, triplicate
Method: For details, please see section 1.2 of Supporting Information.
(§1) 1. Experimental Procedures
(§2) 1.1. Membrane permeabilization assay
(§3) Pseudomonas syringae pv. tabaci cells were grown till mid-logarithmic phase. The cells were […]
(§4) obtain a suspension containing 10^5 CFU/ml. 10µM of Propidium Iodide (Sigma Aldrich Co., St.
(§5) Louis, USA) was added to the cell suspension and incubated at room temperature, under shaking […]
(§6) fluorescence intensity was measured at 25 °C for 30 min at an excitation and emission wavelength of 535 nm and 617 nm respectively. After obtaining the fluorescence intensity of the stabilized cells, peptides were added at increasing concentrations, and the increase in fluorescence intensity was recorded. […]
(§7) HEK293 cell viability was monitored by MTT assay. […] Cell viability was then assessed by incubating the control and peptide treated cells using 100 µl of MTT (2mg/ml) for 3 h. The formazan crystals formed were dissolved in dimethyl sulfoxide (DMSO) and absorbance at 570 nm was recorded using SpectraMax M3 (Softmax Pro 6.3) multiplate reader. […] Cell viability was calculated using the equation: […]
1.3. […] A readseq program, (http://iubio.bio.indiana.edu/soft/molbio/readseq/) is used by the server that reads the protein sequences in standard formats like EMBL, FASTA, GCG or plain text format (Saha & Raghava, 2006). […]

[2] = Plant extract stability assay (RP-HPLC); type: in vitro ADME, Nicotiana tabacum; settings: tobacco leaf extract (20% v/v) containing plant proteases; 1 mg peptide in 20% v/v tobacco leaf extract in 10 mM phosphate buffer pH 7.4, 37°C, stopped with 1% TFA, RP-HPLC C18 peak integration, mean ± SEM n = 3
Method: The stability of VR18 and KG18 in the presence of plant proteases present in plant leaf extract was monitored using a modified version of a previously reported protocol (Li et al. [2002]). Briefly, 1 g of 1‐month‐old tobacco leaf ( Nicotiana tabacum ) was crushed in liquid nitrogen, followed by extraction in 10 mM phosphate buffer (pH 7.4). The suspension was pelleted at 13500× g for 5 min, and the supernatant was collected. 1 mg of the respective peptide was added to a stock of 20% v/v plant extract in 10 mM phosphate buffer (pH 7.4) and incubated at 37°C. 100 μL of aliquots were withdrawn at appropriate time intervals, and the reaction was stopped using 1% trifluoroacetic acid (TFA). Plant extract (20% v/v) was used as a negative control. The aliquots were subjected to a LC‐20AT reverse phase HPLC system (SHIMADZU, Japan) equipped with a Phenomenix C18 column (250 × 10 mm, pore size 100 Å, particle size 5 μm) at room temperature, using acetonitrile and water with 0.1% TFA as the solvents. A flow rate of 1 mL/min was maintained. The percentage of peptide remaining in the plant extract at different time intervals was analysed by peak integration using […] software, and the area obtained was normalised with respect to the free peptide without the plant extract.

[3] = tested on: Xanthomonas campestris pv. vesicatoria, X. campestris pv. campestris, X. oryzae pv. oryzae, Pseudomonas syringae pv. tabaci; settings: 72 h
[4] = tested on: Pseudomonas syringae pv. tabaci cells; assay: Membrane permeabilization assay (propidium iodide uptake); type: cell-based; settings: within 30 min of treatment, 10 µM PI, 10 mM phosphate buffer pH 7.4, normalised to Polymyxin B, n = 3
Method: Pseudomonas syringae pv. tabaci cells were prepared and incubated with Propidium Iodide. The increase in fluorescence intensity was checked upon the addition of peptides. For details, please see section 1.1 of Supporting Information.
as §1, §2, §3, §4, §5
as §6, with “recorded. Normalization was done using measurement of cells treated with Polymyxin B that served as control.” for “recorded.”
as §7

| Substance | cytotoxic effect on HEK 293 cells (MTT) [1] | half-life [2] [h] | IC50 [3] [µM] | minimal inhibitory concentration (MIC99%) [3] [µM] | propidium iodide (PI) uptake [4] |
| --- | --- | --- | --- | --- | --- |
| KNKSRVARGWGRKCPLFG [KG18] | no toxicity | > 1 | 2.75 to 5.5 | 3 to 10 |  |
| Polymyxin B |  |  |  |  | maximum PI uptake |
| VARGWGRKCPLFGKNKSR [VR18] | no toxicity | > 1 | 1.5 to 4.25 | 3 to 10 |  |
